The test system of one data set is HBV. The data set can be described thus: Multiple in vitro HBV replication models (summary statements). The conditions noted are these: Hepatitis B virus. The class given is cell-based. The procedure:
AB-452 and RG7834 both belong to the dihydroquinolizinones chemical class. The antiviral activities of AB-452 and its diastereomer ARB-169451 were evaluated using multiple in vitro HBV replication models, including HepG2.2.15 cells (which constitutively express HBV through the integrated viral genome), PLC/PRF/5 cells (a patient-derived hepatocellular carcinoma cell line only expressing HBsAg), and HBV-infected HepG2-NTCP cells or primary human hepatocytes (PHHs) in which viral replication was dependent on cccDNA transcription (Table 1).

Another data set can be described thus: in vitro. The class given is cell-based. The settings on record: human. From the text: TABLE 3 Cytotoxicity of AB-452 against cells derived from various tissues | column: AB-452 CC50 (μM)

Consider 1 compound from paper PMC8387043, “Host Poly(A) Polymerases PAPD5 and PAPD7 Provide Two Layers of Protection That Ensure the Integrity and Stability of Hepatitis B Virus RNA” (Journal of Virology, 2021).

Where two headings read alike, the source gives them in different places.

With `COCCCOc1cc2c(nc1OC)-c1cc(=O)c(C(=O)O)cn1[C@H](C(C)C)C2` [AB-452], the EC50 in the data set on HBV (HepG2.2.15, PLC/PRF/5, HepG2-NTCP, PHH, read-out: HBsAg, HBeAg and HBV DNA EC50 (range over models)) was 0.28 to 6.8 nM; with HBV (abstract, read-out: HBsAg EC50 in vitro (range over models)), 1.4 to 6.8 nM. Further, the CC50 in “in vitro” is over 30000 nM.
